From publication PMC3812244, “Organophosphate and Pyrethroid Hydrolase Activities of Mutant Esterases from the Cotton Bollworm Helicoverpa armigera” (PLoS ONE, 2013)

Key:
Assay in all cases: spectrophotometric esterase kinetics, active-site titrated enzyme
Settings in all cases: wild-type values collected contemporaneously, also reported in Teese et al. [32]
001f (CCE-001f) = system: T1, 001f (CCE-001f); assay type: biochemical, Helicoverpa armigera
T1 construct: gene CCE001f; untagged, baculovirus expressed in Sf9 cells; titrated active sites
Text: spectrophotometric esterase kinetics, active-site titrated enzyme on 001f (CCE-001f)

001b (CCE-001b) = system: T2, 001b (CCE-001b); assay type: biochemical, Helicoverpa armigera
T2 construct: gene CCE001b; untagged, baculovirus expressed in Sf9 cells; titrated active sites
Text: spectrophotometric esterase kinetics, active-site titrated enzyme on 001b (CCE-001b)

CC(=O)Oc1cccc2ccccc12 = assay type: biochemical, Lucilia cuprina
Text: spectrophotometric esterase kinetics, active-site titrated enzyme on E3

Compound	Km (001f (CCE-001f)) [µM]	Km (001b (CCE-001b)) [µM]	Km (CC(=O)Oc1cccc2ccccc12)	kcat (CC(=O)Oc1cccc2ccccc12)
CC(=O)Oc1cccc2ccccc12 [1-naphthyl acetate]	4	199		
E3 (Lucilia cuprina)			88 (10) µM	1399 (70) sec^-1
